Data from the NIST ThermoML archive (doi:10.1021/acs.jced.7b00347).

Experiment: mn = molality of the nth substance listed, in mol/kg
Details: for surface tension liquid-gas: Ring tensiometer; for electrical conductivity: 100 kPa, Liquid, Alternating current cell with electrodes

CCCCCCCCCCCC[NH+](CCO)CC(C)O.[Cl-] (stereo not drawn) + O
Details | electrical conductivity [S/m] | surface tension liquid-gas [mN/m]
303.15 K, m1 = 1.54e-05 | 0.00051 | –
303.15 K, m1 = 3.44e-05 | 0.000593 | –
303.15 K, m1 = 3.859e-05 | – | 42.83
303.15 K, m1 = 5.34e-05 | 0.000676 | –
303.15 K, m1 = 7.23e-05 | 0.000759 | –
303.15 K, m1 = 7.717e-05 | – | 38
303.15 K, m1 = 9.13e-05 | 0.000841 | –
303.15 K, m1 = 0.0001102 | 0.000924 | –
303.15 K, m1 = 0.0001292 | 0.00101 | –
303.15 K, m1 = 0.0001482 | 0.00109 | –
303.15 K, m1 = 0.0001544 | – | 32.62
303.15 K, m1 = 0.0001671 | 0.00117 | –
303.15 K, m1 = 0.0001861 | 0.00126 | –
303.15 K, m1 = 0.0002051 | 0.00134 | –
303.15 K, m1 = 0.000224 | 0.00142 | –
303.15 K, m1 = 0.0002315 | – | 29.91
303.15 K, m1 = 0.000243 | 0.0015 | –
303.15 K, m1 = 0.0002619 | 0.00159 | –
303.15 K, m1 = 0.0002797 | – | 28.96
303.15 K, m1 = 0.0002809 | 0.00167 | –
303.15 K, m1 = 0.0003067 | 0.00174 | –
303.15 K, m1 = 0.0003326 | 0.00181 | –
303.15 K, m1 = 0.0003584 | 0.00188 | –
303.15 K, m1 = 0.0003842 | 0.00195 | –
303.15 K, m1 = 0.0004101 | 0.00202 | –
303.15 K, m1 = 0.0004359 | 0.00209 | –
303.15 K, m1 = 0.0004617 | 0.00216 | –
303.15 K, m1 = 0.0004876 | 0.00223 | –
303.15 K, m1 = 0.0005134 | 0.0023 | –
303.15 K, m1 = 0.0005392 | 0.00237 | –
303.15 K, m1 = 0.0005651 | 0.00244 | –
303.15 K, m1 = 0.0005909 | 0.00251 | –
303.15 K, m1 = 0.0006167 | 0.00258 | –
303.15 K, m1 = 0.0006426 | 0.00265 | –
303.15 K, m1 = 0.0006684 | 0.00272 | –
303.15 K, m1 = 0.0006942 | 0.00279 | –
303.15 K, m1 = 0.0007201 | 0.00285 | –
303.15 K, m1 = 0.0007459 | 0.00293 | –
303.15 K, m1 = 0.0007717 | 0.003 | 28.21
303.15 K, m1 = 0.001543 | – | 27.64
303.15 K, m1 = 0.002315 | – | 27.64
303.15 K, m1 = 0.003087 | – | 27.64
308.15 K, m1 = 8.952e-06 | – | 50.44
308.15 K, m1 = 1.54e-05 | 0.00061 | –
308.15 K, m1 = 1.543e-05 | – | 46.51
308.15 K, m1 = 3.087e-05 | – | 41.89
308.15 K, m1 = 3.51e-05 | 0.000702 | –
308.15 K, m1 = 3.859e-05 | – | 40.38
308.15 K, m1 = 5.47e-05 | 0.000794 | –
308.15 K, m1 = 7.43e-05 | 0.000886 | –
308.15 K, m1 = 7.717e-05 | – | 35.57
308.15 K, m1 = 9.39e-05 | 0.000978 | –
308.15 K, m1 = 0.0001136 | 0.00107 | –
308.15 K, m1 = 0.0001332 | 0.00116 | –
308.15 K, m1 = 0.0001528 | 0.00125 | –
308.15 K, m1 = 0.0001544 | – | 31.04
308.15 K, m1 = 0.0001724 | 0.00135 | –
308.15 K, m1 = 0.000192 | 0.00144 | –
308.15 K, m1 = 0.0002117 | 0.00153 | –
308.15 K, m1 = 0.0002313 | 0.00162 | –
308.15 K, m1 = 0.0002509 | 0.00171 | –
308.15 K, m1 = 0.0002624 | – | 27.74
308.15 K, m1 = 0.0002705 | 0.00181 | –
308.15 K, m1 = 0.0002902 | 0.0019 | –
308.15 K, m1 = 0.0003087 | – | 27.74
308.15 K, m1 = 0.0003169 | 0.00198 | –
308.15 K, m1 = 0.0003437 | 0.00207 | –
308.15 K, m1 = 0.0003704 | 0.00215 | –
308.15 K, m1 = 0.0003972 | 0.00224 | –
308.15 K, m1 = 0.0004239 | 0.00232 | –
308.15 K, m1 = 0.0004507 | 0.00241 | –
308.15 K, m1 = 0.0004774 | 0.00249 | –
308.15 K, m1 = 0.0005042 | 0.00258 | –
308.15 K, m1 = 0.0005309 | 0.00266 | –
308.15 K, m1 = 0.0005577 | 0.00275 | –
308.15 K, m1 = 0.0005845 | 0.00283 | –
308.15 K, m1 = 0.0006112 | 0.00291 | –
308.15 K, m1 = 0.000638 | 0.003 | –
308.15 K, m1 = 0.0006647 | 0.00308 | –
308.15 K, m1 = 0.0006915 | 0.00317 | –
308.15 K, m1 = 0.0007182 | 0.00325 | –
308.15 K, m1 = 0.000745 | 0.00334 | –
308.15 K, m1 = 0.0007717 | 0.00342 | 27.55
308.15 K, m1 = 0.001543 | – | 27.08
308.15 K, m1 = 0.002315 | – | 26.79
308.15 K, m1 = 0.003087 | – | 26.79
